Holding throughout (format): toxicity, cell-based
One data set relates to Fibroblast. Put plainly: Incucyte cell viability with human fibroblast. Particulars: 10 µM, compound concentration 10 uM.
Another data set deals with HEK-293T. The data set is described as follows: Incucyte cell viability with HEK293T. The note with it: human, 10 µM, compound concentration 10 uM.
The subject of a further data set is U2OS. Put plainly: Incucyte cell viability with U2OS. Particulars: human, 10 µM, compound concentration 10 uM.
Setting [1] is: 6 h, replicate number 1, timepoint 6 hours.
The mark [2] stands for this setting: 6 h, replicate number 2, timepoint 6 hours.
The mark [3] stands for this setting: 12 h, replicate number 1, timepoint 12 hours.
Where [4] appears, read: 12 h, replicate number 2, timepoint 12 hours.
Where [5] appears, read: 18 h, replicate number 1, timepoint 18 hours.
Where [6] appears, read: 18 h, replicate number 2, timepoint 18 hours.
Setting [7] is: 24 h, replicate number 1, timepoint 24 hours.
Where [8] appears, read: 24 h, replicate number 2, timepoint 24 hours.
Setting [9] is: 0 h, replicate number 1, timepoint 0 hours.
[10] abbreviates: 0 h, replicate number 2, timepoint 0 hours.

Ten molecules from ChEMBL document CHEMBL5058564, “EUbOPEN Chemogenomics Library 2 (Incucyte)” (2022) can be followed below.
Note: unitless GR value; below 1 slowed growth and below 0 cell loss.

Consider `CCCCCCCCCCCCC/C=C/[C@@H](O)[C@@H](N)COP(=O)([O-])OCC[N+](C)(C)C` [SPHINGOSYLPHOSPHORYLCHLOLINE], for which the “Growth Rate” value in the data set with Fibroblast (setting [1]) is -0.36; with Fibroblast (setting [2]), -0.69; in the data set with Fibroblast (setting [3]), -0.22; with Fibroblast (setting [4]), -0.25; in the data set on Fibroblast (setting [5]), -0.17; with Fibroblast (setting [6]) it was 0.1. The “Growth Rate” value in the data set with Fibroblast (setting [7]) is 0.17; in the data set on Fibroblast (setting [8]) it was 0.07; in the data set with HEK-293T (setting [1]), -0.01; with HEK-293T (setting [2]) it was -0.35; with HEK-293T (setting [3]), 0.28; with HEK-293T (setting [4]), -0.08. In addition, the “Growth Rate” value turned out to be 0.46 in the data set with HEK-293T (setting [5]); 0.29 in the data set on HEK-293T (setting [6]); 0.43 in the data set on HEK-293T (setting [7]); 0.54 in the data set on HEK-293T (setting [8]); 0.97 with U2OS (setting [1]); 0.91 in the data set with U2OS (setting [4]). Besides, the “Growth Rate” value in the data set on U2OS (setting [6]) came to 0.8; in the data set on U2OS (setting [7]), 0.9; with U2OS (setting [8]), 0.88.

With `COc1cc(OC2CCN(C(C)=O)CC2)ccc1C(=O)N1CCC(N2C(=O)OCc3ccccc32)CC1`, the “Growth Rate” value in the data set on Fibroblast (setting [1]) is reported as -0.07; in the data set on Fibroblast (setting [2]), -0.41; in the data set on Fibroblast (setting [3]) it was 0.28; in the data set on Fibroblast (setting [4]), 0.65; in the data set on Fibroblast (setting [5]) it was 0.37; in the data set on Fibroblast (setting [7]) it was 0.24. The “Growth Rate” value in the data set with HEK-293T (setting [9]) came to 0.92; with U2OS (setting [9]) it was 0.75; in the data set on U2OS (setting [1]) it was 0.85; in the data set with U2OS (setting [2]), 0.79; in the data set with U2OS (setting [4]), 0.77; with U2OS (setting [5]) it was 0.91. Besides, the “Growth Rate” value was 0.78 in the data set on U2OS (setting [6]), 0.91 in the data set with U2OS (setting [7]) and 0.88 in the data set with U2OS (setting [8]).

`CC(C)Oc1ccc(F)c(-c2cnc(N)c(C(=O)Nc3cnccc3N3CCC[C@@H](C(=O)O)C3)n2)c1`: the “Growth Rate” value was -0.81 with Fibroblast (setting [9]); 0.06 with Fibroblast (setting [10]); 0.29 in the data set on HEK-293T (setting [9]); 0.07 with HEK-293T (setting [10]); 0.66 with HEK-293T (setting [1]); 0.25 in the data set on HEK-293T (setting [2]). Further, the “Growth Rate” value in the data set with HEK-293T (setting [3]) came to 0.11; with HEK-293T (setting [4]), 0.14; in the data set with HEK-293T (setting [5]), 0.21; with HEK-293T (setting [6]) it was 0.13; in the data set on HEK-293T (setting [7]), 0.25; with HEK-293T (setting [8]), 0.33. Also, the “Growth Rate” value in the data set on U2OS (setting [10]) is on record as -1; in the data set on U2OS (setting [6]), 0.84; in the data set with U2OS (setting [8]), 0.73.

As for `CCNC(=O)c1cc2c(-c3cc(C(C)(C)O)ccc3Oc3c(C)cc(F)cc3C)cn(C)c(=O)c2[nH]1` [ABBV-744], the “Growth Rate” value in the data set on Fibroblast (setting [9]) is on record as 0.23; in the data set on Fibroblast (setting [1]), 0.41; with Fibroblast (setting [2]), 0.71; with Fibroblast (setting [3]) it was 0.68; in the data set on Fibroblast (setting [5]), 0.87; with Fibroblast (setting [7]), 0.75. Besides, the “Growth Rate” value in the data set with Fibroblast (setting [8]) turned out to be 0.87; in the data set with HEK-293T (setting [9]) it was 0.5; in the data set on HEK-293T (setting [10]), 0.16; with HEK-293T (setting [5]) it was 0.82; in the data set with HEK-293T (setting [7]), 0.69; with HEK-293T (setting [8]) it was 0.71. The “Growth Rate” value with U2OS (setting [7]) was -0.17.

As for `CC(C)NCC(O)COc1cccc2[nH]ccc12` (centres undefined) [PINDOLOL], the “Growth Rate” value is listed as 0.32 in the data set with Fibroblast (setting [9]); -0.46 in the data set on Fibroblast (setting [10]); 0.78 with Fibroblast (setting [3]); 0.94 with Fibroblast (setting [5]); 0.9 in the data set on Fibroblast (setting [7]); -0.05 with HEK-293T (setting [10]). Further, the “Growth Rate” value in the data set with HEK-293T (setting [1]) was 0.7; in the data set on HEK-293T (setting [5]) it was 0.97; in the data set with HEK-293T (setting [6]), 0.94; with HEK-293T (setting [7]), 0.82; with HEK-293T (setting [8]), 0.98; in the data set on U2OS (setting [9]), -0.36. For the same molecule, the “Growth Rate” value in the data set with U2OS (setting [10]) worked out at 0.98; in the data set with U2OS (setting [1]) it was 0.52; with U2OS (setting [3]) it was 0.93; in the data set with U2OS (setting [5]), 0.88; with U2OS (setting [7]), 0.7.

In the case of `CNC(=O)[C@H]1O[C@@H](n2cnc3c(NCc4cccc(I)c4)ncnc32)[C@H](O)[C@@H]1O` [IB-MECA], the “Growth Rate” value is reported as 0.22 in the data set with Fibroblast (setting [9]); 0.12 in the data set with Fibroblast (setting [1]); -0.56 with Fibroblast (setting [2]); 0.45 with Fibroblast (setting [3]); 0.1 in the data set with Fibroblast (setting [4]); 0.7 in the data set with Fibroblast (setting [5]). Moreover, the “Growth Rate” value with Fibroblast (setting [6]) was determined as 0.24; in the data set with Fibroblast (setting [7]), 0.54; with Fibroblast (setting [8]), 0.42; with HEK-293T (setting [9]) it was 0.11; in the data set on HEK-293T (setting [10]), 0.3; in the data set on HEK-293T (setting [4]) it was 1. Moreover, the “Growth Rate” value with HEK-293T (setting [5]) is reported as 0.64; in the data set with HEK-293T (setting [6]), 0.98; in the data set on HEK-293T (setting [7]), 0.64; in the data set on HEK-293T (setting [8]), 0.83; in the data set on U2OS (setting [9]) it was -0.65; in the data set with U2OS (setting [10]) it was -0.98. In addition, the “Growth Rate” value in the data set with U2OS (setting [1]) was 0.98; in the data set with U2OS (setting [2]), 0.82; in the data set with U2OS (setting [3]), 0.89; in the data set with U2OS (setting [4]), 0.85; in the data set on U2OS (setting [5]), 0.79; with U2OS (setting [6]) it was 0.76. Also, the “Growth Rate” value with U2OS (setting [8]) amounted to 0.81.

Consider `N=C(N)NCCC[C@H](NC(=O)COCC(c1ccccc1)c1ccccc1)C(=O)O.O=C(O)C(F)(F)F`, for which the “Growth Rate” value in the data set on Fibroblast (setting [10]) was found to be 0.91; with Fibroblast (setting [1]) it was 0.91; with Fibroblast (setting [3]), 0.66; with Fibroblast (setting [5]), 0.46; with Fibroblast (setting [7]) it was 0.79; with HEK-293T (setting [9]), 0.96. Besides, the “Growth Rate” value amounted to 0.2 with HEK-293T (setting [10]); 1 with HEK-293T (setting [1]); 0.7 in the data set on HEK-293T (setting [3]); 0.84 in the data set on HEK-293T (setting [5]); 0.29 in the data set with U2OS (setting [9]); 0.34 in the data set with U2OS (setting [10]). The “Growth Rate” value is 0.54 with U2OS (setting [1]); 0.72 in the data set on U2OS (setting [2]); 0.84 in the data set on U2OS (setting [3]); 0.86 in the data set with U2OS (setting [4]); 0.7 in the data set on U2OS (setting [5]); 0.91 in the data set on U2OS (setting [6]). For the same molecule, the “Growth Rate” value in the data set on U2OS (setting [7]) amounted to 0.8; in the data set on U2OS (setting [8]), 1.

Turning to `NCCc1c[nH]c2ccc(C(N)=O)cc12.O=C(O)/C=C\C(=O)O`, the “Growth Rate” value is 0.89 in the data set with Fibroblast (setting [9]); -0.08 in the data set on Fibroblast (setting [10]); 0.95 with Fibroblast (setting [6]); 0.4 in the data set on HEK-293T (setting [9]); -0.18 in the data set with HEK-293T (setting [10]); 0.61 with HEK-293T (setting [1]). Further, the “Growth Rate” value in the data set on HEK-293T (setting [3]) is 0.96; in the data set on HEK-293T (setting [5]), 0.9; with HEK-293T (setting [7]) it was 0.9; in the data set on U2OS (setting [9]), -0.1; with U2OS (setting [10]) it was 0.34; with U2OS (setting [1]) it was 0.87. Besides, the “Growth Rate” value in the data set on U2OS (setting [5]) came to 0.89; in the data set with U2OS (setting [7]), 0.83.

In the case of `C=CCNc1ncnc2ccc(Br)cc12`, the “Growth Rate” value was determined as 0.05 in the data set with Fibroblast (setting [10]); 0.47 in the data set on Fibroblast (setting [3]); 0.3 in the data set on Fibroblast (setting [5]); 0.98 in the data set on Fibroblast (setting [6]); 0.45 in the data set with Fibroblast (setting [7]); 0.75 in the data set with Fibroblast (setting [8]). Further, the “Growth Rate” value in the data set with HEK-293T (setting [9]) was 0.98; with HEK-293T (setting [10]), 0.64; with HEK-293T (setting [1]) it was 0.57; in the data set on HEK-293T (setting [3]), 0.84; in the data set on HEK-293T (setting [5]), 0.58; in the data set with HEK-293T (setting [6]) it was 0.9. For the same molecule, the “Growth Rate” value in the data set on HEK-293T (setting [7]) worked out at 0.91; with HEK-293T (setting [8]) it was 0.96; in the data set on U2OS (setting [10]) it was 0.44; in the data set with U2OS (setting [3]), 0.96; in the data set on U2OS (setting [4]), 0.77; in the data set on U2OS (setting [5]), 0.82. The results for the “Growth Rate” value in the data set with U2OS (setting [6]), in the data set on U2OS (setting [7]) and with U2OS (setting [8]) were 0.85, 0.97 and 0.9, respectively.

For the molecule `CCCCCCCCCCCCCCC[C@@H](O)[C@@H](N)COP(=O)(O)O`, the “Growth Rate” value in the data set on Fibroblast (setting [10]) is reported as 0.12; in the data set with Fibroblast (setting [1]), -0.14; in the data set with Fibroblast (setting [2]), 0.42; with Fibroblast (setting [3]), 0.44; in the data set with Fibroblast (setting [4]), 0.66; with Fibroblast (setting [5]) it was 0.43. Further, the “Growth Rate” value turned out to be 0.7 in the data set with Fibroblast (setting [6]); 0.23 in the data set on Fibroblast (setting [7]); 0.73 with Fibroblast (setting [8]); 0.71 in the data set with HEK-293T (setting [10]); 0.25 with HEK-293T (setting [1]); 0.48 with HEK-293T (setting [3]). Also, the “Growth Rate” value worked out at 0.76 in the data set with HEK-293T (setting [4]); 0.51 with HEK-293T (setting [5]); 0.88 in the data set on HEK-293T (setting [6]); 0.63 in the data set with HEK-293T (setting [7]); 0.74 in the data set with HEK-293T (setting [8]); 0.64 in the data set on U2OS (setting [3]).
